Measured values as given in patent US8217042B2, “Pyridopyrazines and their use as modulators of kinases” (Zentaris GmbH, priority 2005, dated 2012).

Tests used:
p38alpha = target: T1, p38alpha (Homo sapiens, UniProt Q16539); assay: Cell-free kinase assay (ALPHA technology), p38alpha; format: biochemical; conditions: at 10 μM or 100 μM* ATP, recombinant human kinase
T1 construct: in some cases as full-length kinases, in some cases as truncated fragments
Protocol: (§1) The inhibitory effect of the inventive compounds was tested on various human serine/threonine kinases, tyrosine kinases and lipid kinases in enzymatic assays. Recombinant human kinases, for example Erk2, PI3Kalpha, -beta, -gamma, -delta, p38alpha, p38gamma, Jnk1, Jnk2 and others were used, in some cases as full-length kinases, in some cases as truncated fragments—but at least consisting of the functional kinase domains. The commercial kinase proteins (Proqinase, Upstate) were used as recombinant fusion proteins with GST (glutathione S-transferase) tag or His tag. Depending on the substrate type, the different kinase reactions were quantified by means of suitable ALPHA™ beads (PerkinElmer). […]
(§2) The fluorescence was detected the next morning in a Fusion™ alpha instrument (Perkin Elmer).
(§3) The calculation of % inhibition values per substance concentration was done by means of the following formula from the raw data determined in the Fusion™ alpha:
(§4) The controls were each determined 8 times, the substance samples each twice. 0% control contained neither any ATP nor any substrate; the 100% control contained no test substance. The IC50 values were determined with GraphPadPrism.

Jnk1 + Jnk2 = assay: Cell-free kinase assay (ALPHA technology), Jnk1 + Jnk2; format: biochemical; conditions: at 10 μM or 100 μM* ATP, recombinant human kinases
Protocol: as §1, §2, §3, §4

Erk2 = target: T2, Erk2; assay: Cell-free kinase assay (ALPHA technology), Erk2-ALPHA; format: biochemical; conditions: 10 μM ATP, recombinant human kinase
T2 construct: in some cases as full-length kinases, in some cases as truncated fragments; purchased Upstate 14-173
T2 sequence (P63085 whole entry, the tested form may be a part): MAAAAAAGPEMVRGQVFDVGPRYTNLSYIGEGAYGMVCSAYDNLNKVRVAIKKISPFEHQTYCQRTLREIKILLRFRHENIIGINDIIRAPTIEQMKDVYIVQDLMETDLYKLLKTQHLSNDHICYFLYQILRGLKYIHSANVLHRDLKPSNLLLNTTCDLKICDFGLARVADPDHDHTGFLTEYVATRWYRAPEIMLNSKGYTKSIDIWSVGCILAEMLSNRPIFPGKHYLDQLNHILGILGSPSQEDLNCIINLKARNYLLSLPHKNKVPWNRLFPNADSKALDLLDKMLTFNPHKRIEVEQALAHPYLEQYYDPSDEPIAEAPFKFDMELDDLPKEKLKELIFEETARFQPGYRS
Protocol: (§5) The inhibitory effect of the inventive compounds was tested on various human serine/threonine kinases, tyrosine kinases and lipid kinases in enzymatic assays. Recombinant human kinases, for example Erk2, PI3Kalpha, -beta, -gamma, -delta, p38alpha, p38gamma, Jnk1, Jnk2 and others were used, in some cases as full-length kinases, in some cases as truncated fragments—but at least consisting of the functional kinase domains. The commercial kinase proteins (Proqinase, Upstate) were used as recombinant fusion proteins with GST (glutathione S-transferase) tag or His tag. Depending on the substrate type, the different kinase reactions were quantified by means of suitable ALPHA™ beads (PerkinElmer).
(§6) The substrate testing on the Erk assay is described in detail below. Selected test results of the Erk2, PI3Kalpha assays are cited below. […] The kinase reaction was then stopped by adding 10 μl of the ALPHA bead mix (10 μg/ml, #6760617/PerkinElmer), pre-incubated with anti-phospho MBP antibody (320 μM, #05-429/Upstate), in 25 mM Tris, 200 mM NaCl, 100 mM EDTA and 0.3% BSA, and left to stand overnight. • b) PI3K-ALPHAs (e.g. PI3Kalpha): The test substance, 1 ng of PI3Kalpha (#14-602, Upstate), 100 μM ATP and 20 μM PIP2 substrate (#P4508, Echelon) on a 384-well Optiplate (Perkin Elmer) for 1 h in 50 mM Hepes, 50 mM NaCl, 5 mM MgCl2, 0.05% Chaps, 5 mM DTT at pH 7.4. Subsequently, the kinase reaction was stopped by adding the ALPHA bead mix (10 μg/ml, #6760603/PerkinElmer), preincubated with 1 nM GST:Grp1 fusion protein (Upstate) and 15 nM biotinylated PIP3 (#C-39B6/Echelon) in 50 mM Hepes, 50 mM NaCl, 50 mM EDTA and 0.1% BSA, and left to stand overnight.
as §2, §3, §4

PI3Kalpha = target: T3, PI3Kalpha (Homo sapiens, UniProt P42336); assay: Cell-free kinase assay (ALPHA technology), PI3K-ALPHA; format: biochemical; conditions: 100 μM ATP, recombinant human kinase
T3 construct: in some cases as full-length kinases, in some cases as truncated fragments; purchased Upstate 14-602
T3 sequence (P42336 whole entry, the tested form may be a part): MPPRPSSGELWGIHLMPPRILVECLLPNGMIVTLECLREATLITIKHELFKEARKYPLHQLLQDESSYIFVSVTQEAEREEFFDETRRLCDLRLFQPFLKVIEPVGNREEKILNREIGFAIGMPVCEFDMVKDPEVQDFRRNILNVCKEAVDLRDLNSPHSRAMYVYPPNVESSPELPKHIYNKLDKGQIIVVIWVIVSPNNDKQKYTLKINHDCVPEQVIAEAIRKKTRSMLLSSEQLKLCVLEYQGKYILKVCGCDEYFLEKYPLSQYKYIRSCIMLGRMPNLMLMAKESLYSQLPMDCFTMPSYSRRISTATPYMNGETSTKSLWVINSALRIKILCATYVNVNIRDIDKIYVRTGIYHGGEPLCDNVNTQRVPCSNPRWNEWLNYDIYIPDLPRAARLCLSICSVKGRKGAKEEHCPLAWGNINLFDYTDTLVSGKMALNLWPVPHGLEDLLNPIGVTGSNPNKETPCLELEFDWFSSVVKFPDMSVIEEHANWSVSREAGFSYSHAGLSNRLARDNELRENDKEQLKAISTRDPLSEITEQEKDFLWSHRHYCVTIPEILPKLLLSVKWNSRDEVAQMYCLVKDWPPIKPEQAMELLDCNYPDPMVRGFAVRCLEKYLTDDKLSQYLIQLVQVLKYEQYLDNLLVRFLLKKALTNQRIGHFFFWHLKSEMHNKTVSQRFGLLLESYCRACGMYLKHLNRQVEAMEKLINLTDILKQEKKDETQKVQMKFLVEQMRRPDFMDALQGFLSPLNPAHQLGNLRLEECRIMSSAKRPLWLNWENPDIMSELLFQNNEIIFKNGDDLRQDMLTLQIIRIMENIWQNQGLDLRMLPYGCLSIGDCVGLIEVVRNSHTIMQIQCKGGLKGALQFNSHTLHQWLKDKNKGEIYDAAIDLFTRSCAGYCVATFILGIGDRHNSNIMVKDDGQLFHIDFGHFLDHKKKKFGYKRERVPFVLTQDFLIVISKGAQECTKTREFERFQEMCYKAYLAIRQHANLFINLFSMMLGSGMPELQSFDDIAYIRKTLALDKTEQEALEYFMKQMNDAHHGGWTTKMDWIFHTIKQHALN
T3 sequence (P27986 whole entry partner, the tested form may be a part): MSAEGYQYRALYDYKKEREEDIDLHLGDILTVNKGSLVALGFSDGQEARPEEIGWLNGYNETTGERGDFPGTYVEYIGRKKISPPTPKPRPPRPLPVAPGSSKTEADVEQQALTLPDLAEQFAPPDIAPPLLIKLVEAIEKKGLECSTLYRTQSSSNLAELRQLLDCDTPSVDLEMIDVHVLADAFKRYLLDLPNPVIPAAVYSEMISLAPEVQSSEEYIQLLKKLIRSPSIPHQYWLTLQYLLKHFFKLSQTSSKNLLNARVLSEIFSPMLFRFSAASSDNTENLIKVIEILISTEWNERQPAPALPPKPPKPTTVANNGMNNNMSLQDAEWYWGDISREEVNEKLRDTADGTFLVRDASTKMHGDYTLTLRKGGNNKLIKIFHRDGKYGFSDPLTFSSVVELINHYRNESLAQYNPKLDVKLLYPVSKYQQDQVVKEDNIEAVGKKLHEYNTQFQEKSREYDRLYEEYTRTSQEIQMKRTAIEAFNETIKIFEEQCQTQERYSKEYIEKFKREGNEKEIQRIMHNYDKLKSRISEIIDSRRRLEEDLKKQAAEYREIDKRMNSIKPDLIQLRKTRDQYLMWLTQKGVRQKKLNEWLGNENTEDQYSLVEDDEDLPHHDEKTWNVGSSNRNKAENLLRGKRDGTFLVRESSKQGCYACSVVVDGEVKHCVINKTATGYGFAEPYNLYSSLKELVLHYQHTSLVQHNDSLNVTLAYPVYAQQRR
Protocol: as §5, §6, §2, §3, §4

T1 sequence (Q16539 whole entry, the tested form may be a part): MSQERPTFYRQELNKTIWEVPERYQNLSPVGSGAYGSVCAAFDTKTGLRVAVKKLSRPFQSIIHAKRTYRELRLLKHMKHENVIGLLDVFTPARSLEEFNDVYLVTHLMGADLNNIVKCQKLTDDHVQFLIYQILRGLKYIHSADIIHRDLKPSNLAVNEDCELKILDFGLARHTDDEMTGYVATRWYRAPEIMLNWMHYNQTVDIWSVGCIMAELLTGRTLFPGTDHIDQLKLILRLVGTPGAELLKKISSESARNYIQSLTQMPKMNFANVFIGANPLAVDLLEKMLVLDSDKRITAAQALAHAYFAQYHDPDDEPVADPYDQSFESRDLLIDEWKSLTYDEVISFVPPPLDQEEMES

Structure (SMILES)	IC50 (p38alpha) [µM]	IC50 (Jnk1 + Jnk2) [µM]	IC50 (Erk2) [µM]	melting point	IC50 (PI3Kalpha) [µM]
CONC(=O)Nc1ccc2ncc(-c3ccccc3)nc2n1 [Compound 7, 1-Methoxy-3-(3-phenylpyrido[2,3-b]pyrazin-6-yl)urea]	> 100	11.4	–	–	–
C=CCONC(=O)Nc1ccc2ncc(-c3ccccc3)nc2n1 [Compound 8, 1-Allyloxy-3-(3-phenylpyrido[2,3-b]pyrazin-6-yl)urea]	> 100	19.4	–	–	–
CCNC(=O)Nc1ccc2ncc(-c3ccc(OC(=O)N(CC)CC)cc3)nc2n1 [Compound 12, 4-[6-(3-Ethylurea)pyrido[2,3-b]pyrazin-3-yl]phenyl diethylcarbamate]	8.8	0.637	–	–	–
CCNC(=O)Nc1ccc2ncc(-c3ccc(OC(=O)/C=C/c4ccccc4)cc3)nc2n1 [Compound 13, 4-[6-(3-Ethylurea)pyrido[2,3-b]pyrazin-3-yl]phenyl (E)-3-phenylacrylate]	–	> 100	0.64	236 to 238 °C	–
CCNC(=O)Nc1ccc2ncc(-c3ccc(OC(=O)N(C)C)cc3)nc2n1 [Compound 19, 4-[6-(3-Ethylurea)pyrido[2,3-b]pyrazin-3-yl]phenyl dimethylcarbamate]	–	10.1	3.9	> 230 °C (dec.)	2.3
CCNC(=O)Nc1ccc2ncc(-c3ccc(CN4CCOCC4)cc3)nc2n1 [Compound 28, 1-Ethyl-3-[3-(4-morpholin-4-ylmethylphenyl)pyrido[2,3-b]pyrazin-6-yl]urea]	> 100	5	0.364	–	1.8
CCNC(=O)Nc1ccc2ncc(-c3ccc(OCCOCCOC)cc3)nc2n1 [Compound 29, 1-Ethyl-3-(3-{4-[2-(2-methoxyethoxy)ethoxy]phenyl}pyrido[2,3-b]pyrazin-6-yl)urea]	> 100	24.2	0.396	–	2.3
CCNC(=O)Nc1ccc2ncc(-c3ccc(NC(=O)COCCOC)cc3)nc2n1 [Compound 30, N-{4-[6-(3-Ethylurea)pyrido[2,3-b]pyrazin-3-yl]phenyl}-2-(2-methoxyethoxy)acetamide]	–	13.8	> 31.6	212 to 215 °C	0.749

The next lines start with the values.

IC50 (p38alpha) [µM]	IC50 (Jnk1 + Jnk2) [µM]	IC50 (Erk2) [µM]	melting point	IC50 (PI3Kalpha) [µM]	Structure (SMILES)
–	> 31.6	> 100	281 to 283 °C	1.2	CCNC(=O)Nc1ccc2ncc(-c3ccc(NC(=O)OC(C)(C)C)cc3)nc2n1 [Compound 21, tert-Butyl {4-[6-(3-ethylurea)pyrido[2,3-b]pyrazin-3-yl]phenyl}carbamate]
–	> 31.6	> 100	249 to 251 °C	1.2	CCNC(=O)Nc1ccc2ncc(-c3ccc(NC(=O)OCCOC)cc3)nc2n1 [Compound 22, 2-Methoxyethyl {4-[6-(3-ethylurea)pyrido[2,3-b]pyrazin-3-yl]phenyl}carbamate]
–	–	–	246 to 248 °C	–	CCNC(=O)Nc1ccc2ncc(Nc3ccc(C4CCCCC4)cc3)nc2n1 [Compound 47, 1-[3-(4-Cyclohexylphenylamino)pyrido[2,3-b]pyrazin-6-yl]-3-ethylurea]
> 100	> 31.6	> 100	275 to 280 °C	1.1	CCNC(=O)Nc1ccc2ncc(Nc3ccc(S(C)(=O)=O)cc3)nc2n1 [Compound 48, 1-Ethyl-3-[3-(4-methanesulphonylphenylamino)pyrido[2,3-b]pyrazin-6-yl]urea]
18.1	> 31.6	4.7	228 to 234 °C	0.683	CCNC(=O)Nc1ccc2ncc(Nc3cccc(C(=O)NC)c3)nc2n1 [Compound 50, 3-[6-(3-Ethylurea)pyrido[2,3-b]pyrazin-3-ylamino]-N-methylbenzamide]
–	–	–	264 to 267 °C	–	CCNC(=O)Nc1ccc2ncc(Nc3ccc(-c4ccsc4)cc3)nc2n1 [Compound 52, 1-Ethyl-3-[3-(4-thiophen-3-ylphenylamino)pyrido[2,3-b]pyrazin-6-yl]urea]
